Experiments:
Stat5a/b = assay: Constitutive Stat5a/b phosphorylation in imatinib-resistant KCL22R cells (Western blot); format: cell-based, human
Experimental: Exponentially growing KCL22S and KCL22R cells were treated with Compound 1 or Compound 2 at various concentrations for 3 h and 16 h (Compound 1) or 3 h, 6 h or 16 h (Compound 2) after which the cells were harvested. Cell pellets were solubilized in lysis buffer [10 mM Tris-HCl (pH 7.6), 5 mM EDTA, 50 mM sodium chloride, 30 mM sodium pyrophosphate, 50 mM sodium fluoride, 1 mM sodium orthovanadate, 1% Triton X-100, 1 mM phenylmethylsulfonyl fluoride, 5 μg/ml aprotinin, 1 μg/ml pepstatin A, and 2 μg/ml leupeptin], rotated end-over-end at 4° C. for 60 min, and insoluble material was pelleted at 12,000×g for 30 min at 4° C. The protein concentrations of clarified cell lysates were determined by simplified Bradford method (Bio-Rad Laboratories, Hercules, Calif.). Western blotting of the lysates was carried out using, as primary antibodies, the following antibodies at the following concentrations: anti-phosphotyrosine-Stat5a/b (Y694/Y699) mAb (1 μg/ml, Advantex BioReagents, Conroe, Tex.), anti-Stat5ab mAb (1:250; BD Biosciences, San Jose, Calif.) or anti-actin pAb (Sigma). Anti-actin was included as a control.
Exponentially growing K562 cells were treated with NBPP for 3 h or 6 h after which the cells were harvested. Exponentially growing K562 cells or imatinib-resistant K562 cells were treated with NBPP for 6 h or 16 h after which the cells were harvested. Cell pellets were solubilized in lysis buffer [10 mM Tris-HCl (pH 7.6), 5 mM EDTA, 50 mM sodium chloride, 30 mM sodium pyrophosphate, 50 mM sodium fluoride, 1 mM sodium orthovanadate, 1% Triton X-100, 1 mM phenylmethylsulfonyl fluoride, 5 μg/ml aprotinin, 1 μg/ml pepstatin A, and 2 μg/ml leupeptin], rotated end-over-end at 4° C. for 60 min, and insoluble material was pelleted at 12,000×g for 30 min at 4° C. The protein concentrations of clarified cell lysates were determined by simplified Bradford method (Bio-Rad Laboratories, Hercules, Calif.). […]

[1] = system: KCL22 human chronic myeloid leukemia cells; assay: Cell viability, MTS assay, KCL22 (imatinib-sensitive) chronic myeloid leukemia cells; format: cell-based; conditions: KCL22 (KCL22S), 72 h, 3.1, 6.3, 12.5, 25 and 50 μM, vs control compound C5
Experimental: (§1) Exponentially growing KCL22 human chronic myeloid leukemia cells were treated with Compound 1, Compound 2 or the control compound C5 for 72 h at 3.1, 6.3. 12.5, 25 and 50 μM concentrations. The cell viability was assessed by MTS (3-(4,5-dimethylthiazolyl-2)-2,5-diphenyl-tetrazolium bromide) metabolic activity assay (CellTiter 96® AQueous Assay kit).
as §1, with “CWR22Rv1 prostate cancer cells, K562 leukemia cells and imatinib-sensitive KCL22S and imatinib-resistant KCL22R” for “KCL22 human”, “NBPP” for “Compound 1, Compound 2”

[2] = KCL22R, various concentrations, 3 h and 16 h (Compound 1) or 3 h, 6 h or 16 h (Compound 2)

Structure (SMILES) | effect on phosphorylation of Stat5 (Stat5a/b; [2]) | number of viable cells [1] | effect on phosphorylation of Stat5 (Stat5a/b; KCL22R imatinib-resistant, 6 h or 16 h)
OC[C@H]1O[C@@H](n2cnc3c(N4CCc5ccccc5C4)ncnc32)[C@H](O)[C@@H]1O [Compound 1, (2R,3R,4S,5R)-2-(6-(3,4-Dihydroisoquinolin-2(1H)-yl)-9H-purin-9-yl)-5-(hydroxymethyl)tetrahydrofuran-3,4-diol] | block phosphorylation of Stat5 | decreased the number of viable leukemic cancer cells compared to the control compound | 
OC[C@H]1O[C@@H](n2cnc3c(NNc4ccccc4)ncnc32)[C@H](O)[C@@H]1O [Compound 2, (2R,3S,4R,5R)-2-(hydroxymethyl)-5-(6-(2-phenylhydrazinyl)-9H-purin-9-yl)tetrahydrofuran-3,4-diol] | block phosphorylation of Stat5 | decreased the number of viable leukemic cancer cells compared to the control compound | 
OC[C@H]1O[C@@H](n2ccc3c(NCc4ccccc4)ncnc32)[C@H](O)[C@@H]1O [NBPP, N-(phenylmethyl)-7-β-D-ribofuranosyl-7H-pyrrolo[2,3-d]pyrimidin-4-amine] |  | decreased the number of viable KCL22S cells | inhibits phosphorylation of Stat5
